Test results published in EP4461731A1, “LIGANDS OF THE M6A-RNA READERS” (Universität Zürich, priority 2023, dated 2024).
Read-outs that look alike come from different tables or passages of the source.

Key:
Cells [1] = test: cells; conditions: 72 h
Cells [2] = conditions: read-out: Antiprolif. activity GI50; 72 h, CellTiter-Glo; cell line not named
[3] = read-out: Antiprolif. activity GI50, 72 h, CellTiter-Glo, cell line not named
[4] = read-out: Antiprolif. activity GI50

Row | SMILES | GI50 (Cells [1]; [3]) [µM] | GI50 (Cells [2]) [µM] | GI50 (Cells [1]; [4]) [µM]
1 | CNc1nc(Cl)nc2c1ncn2Cc1cc(Cl)ccc1NS(C)(=O)=O [ZA400, N-(4-chloro-2-((2-chloro-6-(methylamino)-9H-purin-9-yl)methyl)phenyl) methanesulfonamide] | 31 | 21 | 
2 | CNc1nc(Cl)nc2c1ncn2Cc1cccc(Cl)c1 [ZA349, 2-chloro-9-(3-chlorobenzyl)-N-methyl-9H-purin-6-amine] |  |  | ≤ 10
3 | CNc1nc(Cl)nc2c1ncn2Cc1cccc(C(=O)OC)c1 [ZA347, Methyl 3-((2-chloro-6-(methylamino)-9H-purin-9-yl)methyl)benzoate] | ≤ 10 |  | 
4 | CNc1nc(Cl)nc2c1ncn2Cc1ccc(C(=O)OC)cc1 [ZA311, Methyl 4-((2-chloro-6-(methylamino)-9H-purin-9-yl)methyl)benzoate] |  |  | ≤ 10
5 | CNc1nc(Cl)nc2c1ncn2Cc1ccccc1NS(C)(=O)=O [ZA364, N-(2-((2-chloro-6-(methylamino)-9H-purin-9-yl)methyl)phenyl)methanesulfonamide] | 21 |  | 
6 | CNc1nc(Cl)nc2c1ncn2Cc1ccc(OC)c(Cl)c1 [FE150, 2-chloro-9-(3-chloro-4-methoxybenzyl)-N-methyl-9H-purin-6-amine] |  |  | ≤ 10
